Data from patent US20070248996A1, “Modulators of beta-amyloid peptide aggregation comprising D-amino acids” (Paraecis Pharmaceuticals, Inc., priority 1995, published 2007).
Like-named read-outs stand apart in the source and are kept apart here. Square brackets hold non-standard residues; d marks the D form. Peptide text beside a SMILES is read from it. * marks the point of attachment. Isoquinolin(3-yl)carbonyl = O=C(c1cc2ccccc2cn1)*; Quinoline4carbonyl = O=C(c1ccnc2ccccc12)*; Benzoyl(4-OH) = O=C(c1ccc(O)cc1)*; X5 = O=C(c1nccc2ccccc12)*

Target: Aβ1-40 (Homo sapiens, UniProt P05067)
Assay type: biochemical
Set-up: ΔLag: unit not given here
Details: for ΔLag: Table XI; for ΔLag 0.5 μM / ΔLag 5.0 μM / ΔLag […]: Table VI; for ΔLag 5.0 μM: 5.0 μM test compound; for ΔLag […]: […] test compound; for ΔLag 3 μM: 3 μM test compound; for ΔLag 4 μM: 4 μM test compound
Source text: The nucleation assay is employed to determine the ability of test compounds to alter (e.g. inhibit) the early events in formation of β-AP fibers from monomeric β-AP. Characteristic of a nucleated polymerization mechanism, a lag time is observed prior to nucleation, after which the peptide rapidly forms fibers as reflected in a linear rise in turbidity. The time delay before polymerization of β-AP monomer can be quantified as well as the extent of formation of insoluble fiber by light scattering (turbidity). Polymerization reaches equilibrium when the maximum turbidity reaches a plateau The turbidity of a solution of natural β-AP in the absence or presence of various concentrations of a β-amyloid modulator compound is determined by measuring the apparent absorbance of the solution at 405 nm (A405 nm) over time. The threshold of sensitivity for the measurement of turbidity is in the range of 15-20 μM β-AP. […] This assay can be performed using stirring or shaking to accelerate polymerization, thereby increasing the speed of the assay. Moreover the assay can be adapted to a 96-well plate format to screen multiple compounds.
HFIP-solubilized peptide is sonicated in a waterbath sonicator for 5 min at highest setting, then evaporated to dryness under a stream of argon. The peptide film is resuspended in anhydrous dimethylsulfoxide (DMSO) at a concentration of 6.9 mg/ml (25× concentration), sonicated for 5 min as before, then filtered through a 0.2 micron nylon syringe filter (VWR cat. No.28196-050). Test compounds are dissolved in DMSO at a 100× concentration. […] Ten microliters of the mixture is then added to the bottom of a well of a Corning Costar ultra low binding 96-well plate (Coming Costar, Cambridge Mass.; cat. No. 2500). Ninety microliters of water is added to the well, the plate is shaken on a rotary shaken at a constant speed at room temperature for 30 seconds, an additional 100 μl of 2× PTL buffer (20 mM NaH2PO4, 300 mM NaCl, pH 7.4) is added to the well, the plate is reshaken for 30 seconds and a baseline (t=0) turbidity reading is taken by measuring the apparent absorbance at 405 nm using a Bio-Rad Model 450 Microplate Reader. The plate is then returned to the shaker and shaken continuously for 5 hours. Turbidity readings are taken at 15 minute intervals.
β-amyloid aggregation in the absence of any modulators results in enhanced turbidity of the natural β-AP solution (i.e., an increase in the apparent absorbance at 405 nm over time). […]

[1] = Table V, hydroxylated and oxygenated modifying groups, 5 μM test compound
[2] = Table IV, hydrophobic modifying groups, 5 μM test compound
[3] = Table I, 5 μM Aβ1-40, 2 μM test compound, ratio of lag time with compound to lag time of control
[4] = Table I, 5 μM Aβ1-40, 5 μM test compound, ratio of lag time to control
[5] = Table II, second series, different stock of Aβ1-40, 2 μM test compound
[6] = Table II, second series, different stock of Aβ1-40
[7] = Table II, second series, different stock of Aβ1-40, 5 μM test compound
[8] = Table III, modifying groups derived from bile acids, 5 μM test compound

Aβ1-40, sequence (P05067 672-711): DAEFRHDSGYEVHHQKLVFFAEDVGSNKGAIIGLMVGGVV

CC(C)C[C@@H](NC(=O)[C@H](NC(=O)[C@@H](Cc1ccccc1)NC(=O)[C@@H](Cc1ccccc1)NC(=O)[C@@H](C)NC(=O)CN)C(C)C)C(N)=O [PPI-734, H-Glycyl-d(AFFVL)-nh2]
ΔLag (5 μM test compound): >10

4-Hydroxycinnamoyl-d(AFFVL)-nh2 [PPI-587]
ΔLag 5 μM (Table IX, 5 μM test compound): 3.7

h-d(AFFLL)-nh2 [PPI-577]
ΔLag 0.5 μM (0.5 μM test compound): 1.0 | ΔLag 5.0 μM: >7.5 | ΔLag […]: 1.3 | ΔLag 5 μM (Table X, 5 μM test compound): >6

CC(C)C[C@@H](NC(=O)[C@H](NC(=O)[C@@H](Cc1ccccc1)NC(=O)[C@@H](Cc1ccccc1)NC(=O)[C@@H](C)NC(=O)c1ccnc2ccccc12)C(C)C)C(N)=O [PPI-746, 4-Quinolinecarboxyl-d(AFFVL)-nh2] (Quinoline4carbonyl-[dA][dF][dF][dV][dL]-NH2)
ΔLag (5 μM test compound): 2

4-Hydroxyphenylacetyl-d(FFFVL)-nh2 [PPI-651]
ΔLag 5 μM (Table IX, 5 μM test compound): 2.1

2,4-Dihydroxybenzoyl-d(LVFFA)-nh2 [PPI-532]
ΔLag 5 μM (Table IX, 5 μM test compound): 1.7

3,5-Dihydroxy-2-naphthoyl-d(LVFFA)-nh2 [PPI-523]
ΔLag 5 μM [1]: 3.8 | ΔLag 5 μM (Table VIII, 5 μM test compound): 2.1

3,7-Dihydroxy-2-naphthoyl-d(LFFVL)-nh2 [PPI-648]
ΔLag 5 μM (Table IX, 5 μM test compound): 3.1

h-d(VFF)-oh [PPI-502]
ΔLag 5 μM [2]: 1.0

2-Formylphenoxyacetyl-d(LVFFA)-nh2 [PPI-554]
ΔLag 5 μM (Table IX, 5 μM test compound): 2.6

cholyl-Leu-Val-Phe-Phe-Ala-NH2 [PPI-382]
ΔLag 2 μM [3]: >10 | ΔLag 5 μM [4]: >12

4-Methylvaleryl-d(LVFFA)-nh2 [PPI-524]
ΔLag 5 μM [2]: 1.6

2,4-Dihydroxybenzoyl-d(LVFF)-nh2 [PPI-486]
ΔLag 5 μM [1]: 1.2

Hydrocinnamoyl-d(FFVL)-oh [PPI-619]
ΔLag 5 μM (Table IX, 5 μM test compound): 2.0

h-d(LVFA)-oh [PPI-479]
ΔLag 2 μM [5]: 1.1 | ΔLag 3 μM [6]: 0.9 | ΔLag 4 μM [6]: 1.0 | ΔLag 5 μM [7]: 1.1

h-d(FFFLV)-nh2 [PPI-533]
ΔLag 0.5 μM (0.5 μM test compound): 1.5 | ΔLag 5.0 μM: >7.5 | ΔLag […]: 3.8 | ΔLag 5 μM (Table X, 5 μM test compound): >6

3,4-Dihydroxycinnamoyl-d(AFFVL)-nh2 [PPI-569]
ΔLag 5 μM (Table IX, 5 μM test compound): 2.6

CA-d(AFFVL)-cooh [PPI-454]
ΔLag 2 μM [3]: 4.0 | ΔLag 5 μM [4]: >12

4-Hydroxyphenylacetyl-d(LFFVL)-nh2 [PPI-649]
ΔLag 5 μM (Table IX, 5 μM test compound): 5.1

(±)-Mandelyl-d(LVFF)-nh2 [PPI-482 (isomer 1)]
ΔLag 5 μM [1]: 1.5

h-d(FFFVL)-nh2 [PPI-579]
ΔLag 0.5 μM (0.5 μM test compound): 1.8 | ΔLag 5.0 μM: >7.5 | ΔLag […]: 6.3 | ΔLag 5 μM (Table X, 5 μM test compound): >6

trans-Cinnamoyl-d(LVFF)-nh2 [PPI-490]
ΔLag 5 μM [2]: 1.0

h-d(AFFFL)-nh2 [PPI-598]
ΔLag 0.5 μM (0.5 μM test compound): 1.3 | ΔLag 5.0 μM: 6.3 | ΔLag […]: 2.0 | ΔLag 5 μM (Table X, 5 μM test compound): >6

CC(C)C[C@@H](NC(=O)[C@H](NC(=O)[C@@H](Cc1ccccc1)NC(=O)[C@@H](Cc1ccccc1)NC(=O)[C@@H](C)NC(=O)c1nccc2ccccc12)C(C)C)C(N)=O [PPI-748, 1-Isoquinolinecarboxyl-d(AFFVL)-nh2] (X5-[dA][dF][dF][dV][dL]-NH2)
ΔLag (5 μM test compound): <3

CC(C)C[C@@H](NC(=O)c1ccc(O)cc1)C(=O)N[C@@H](C(=O)N[C@H](Cc1ccccc1)C(=O)N[C@H](Cc1ccc(O)cc1)C(=O)N[C@H](C)C(N)=O)C(C)C [PPI-772, 4-Hydroxybenzoyl-d(LVFYA)-nh2] ({Benzoyl(4-OH)}-[dL][dV][dF][dY][dA]-NH2)
ΔLag (5 μM test compound): 2

h-d(AFFVL)-nh2 [PPI-500]
ΔLag 0.5 μM (0.5 μM test compound): 1.0 | ΔLag 5.0 μM: >6.0 | ΔLag […]: 1.8

H-d(A[homoPhe][homoPhe]VL)-nh2 [PPI-571]
ΔLag 5 μM (Table X, 5 μM test compound): >6

Acetyl-d(LVYFA)-nh2 [PPI-505]
ΔLag 5.0 μM: 1.0

cholyl-D-Leu-D-Val-D-Phe-phenethylamide [PPI-494]
ΔLag 2 μM [5]: 1.0 | ΔLag 3 μM [6]: 1.3 | ΔLag 4 μM [6]: 1.4 | ΔLag 5 μM [7]: 1.4 | ΔLag 5 μM [2]: 1.5 | ΔLag 5 μM (Table IX, 5 μM test compound): 1.3

3,7-Dihydroxy-2-naphthoyl-d(LVFFA)-nh2 [PPI-548]
ΔLag 5 μM (Table VIII, 5 μM test compound): 2.5

4-(2-Hydroxyphenyl)propionyl-d(AFFVL)-nh2 [PPI-611]
ΔLag 5 μM (Table IX, 5 μM test compound): 3.2

Chenodeoxycholyl-LVFFA-oh [PPI-521]
ΔLag 5 μM [8]: >2.3 | ΔLag 5 μM (Table IX, 5 μM test compound): 3.6

CC(C)C[C@@H](NC(=O)[C@H](NC(=O)[C@@H](Cc1ccccc1)NC(=O)[C@@H](Cc1ccccc1)NC(=O)CN)C(C)C)C(N)=O [PPI-733, H-Glycyl-d(FFVL)-nh2] (H-G[dF][dF][dV][dL]-NH2)
ΔLag (5 μM test compound): 0

Benzoylpropanoyl-d(LVFF)-nh2 [PPI-489]
ΔLag 5 μM [1]: 1.2

CC(C)C[C@@H](NC(=O)[C@H](NC(=O)[C@@H](Cc1ccccc1)NC(=O)[C@@H](Cc1ccccc1)NC(=O)[C@@H](C)NC(=O)c1cc2ccccc2cn1)C(C)C)C(N)=O [PPI-749] ({Isoquinolin(3-yl)carbonyl}-[dA][dF][dF][dV][dL]-NH2)
ΔLag (5 μM test compound): 3

CA-d(LV(IY)FA)-oh [PPI-462]
ΔLag 2 μM [5]: 2.7 | ΔLag 3 μM [6]: >2.7 | ΔLag 4 μM [6]: >2.7 | ΔLag 5 μM [7]: >2.7

(±)-Mandelyl-(±)-mandelyl-d(LVFFA)-nh2 [PPI-518]
ΔLag 5 μM [1]: 1.5

Ac-d(LVFFA)-nh2 [PPI-501]
ΔLag 5 μM (Table IX, 5 μM test compound): 1.4

4-Hydroxy-3-methoxycinnamoyl-d(LVFFA)-nh2 [PPI-555]
ΔLag 5 μM (Table IX, 5 μM test compound): 1.7

CA-d(LVYFA)-oh [PPI-455]
ΔLag 2 μM [5]: 1.8 | ΔLag 3 μM [6]: 2.0 | ΔLag 4 μM [6]: 2.3 | ΔLag 5 μM [7]: >2.7

CC(C)C[C@@H](N)C(=O)N[C@@H](C(=O)N[C@H](Cc1ccccc1)C(=O)N[C@H](Cc1ccccc1)C(=O)N[C@H](Cc1ccccc1)C(N)=O)C(C)C [PPI-656, H-d(LVFFF)-nh2] (H-[dL][dV][dF][dF][dF]-NH2)
ΔLag (0.5 μM test compound): 2.3 | ΔLag (5 μM test compound): >2.5

Isobutanoyl-d(LVFFA)-nh2 [PPI-526]
ΔLag 5 μM [2]: 1.8

CC(C)C[C@@H](N)C(=O)N[C@@H](C(=O)N[C@H](Cc1ccccc1)C(=O)N[C@H](Cc1ccccc1)C(=O)N[C@@H](C(N)=O)C(C)C)C(C)C [PPI-657, H-d(LVFFV)-nh2] (H-[dL][dV][dF][dF][dV]-NH2)
ΔLag (0.5 μM test compound): 1.7 | ΔLag (5 μM test compound): >10

4-Hydroxycinnamoyl-d(LVFFA)-nh2 [PPI-537]
ΔLag 5 μM (Table IX, 5 μM test compound): 1.6 | ΔLag 5 μM [1]: 1.0

L-3-Phenyllactyl-d(AFFVL)-nh2 [PPI-608]
ΔLag 5 μM (Table IX, 5 μM test compound): >6

CA-LVYFA-cooh [PPI-399]
ΔLag 2 μM [3]: 3.0 | ΔLag 5 μM [4]: 6

h-d(FFFFL)-nh2 [PPI-589]
ΔLag 0.5 μM (0.5 μM test compound): 1.5 | ΔLag 5.0 μM: >7.5 | ΔLag […]: 3.3 | ΔLag 5 μM (Table X, 5 μM test compound): >6

Cholyl-LVFFA-oh [PPI-424]
ΔLag 5 μM [8]: >6.0

D-3-Phenyllactyl-d(AFFVL)-nh2 [PPI-607]
ΔLag 5 μM (Table IX, 5 μM test compound): 3.1

3,4-Dihydroxycinnamoyl-d(LFFVL)-nh2 [PPI-593]
ΔLag 5 μM (Table IX, 5 μM test compound): 2.0

3-Hydroxycinnamoyl-d(LVFFA)-nh2 [PPI-538]
ΔLag 5 μM (Table IX, 5 μM test compound): 2.0

Acetyl-d(LV(IodoY)FA)-nh2 [PPI-506]
ΔLag 5.0 μM: 1.0

CC(C)C[C@@H](NC(=O)c1ccc(O)cc1)C(=O)N[C@@H](C(=O)N[C@H](Cc1ccc(O)cc1)C(=O)N[C@H](Cc1ccccc1)C(=O)N[C@H](C)C(N)=O)C(C)C [PPI-774, 4-Hydroxybenzoyl-d(LVYFA)-nh2] ({Benzoyl(4-OH)}-[dL][dV][dY][dF][dA]-NH2)
ΔLag (5 μM test compound): 1

h-d(LV(IodoY)FA)-nh2 [PPI-504]
ΔLag 5.0 μM: 2.2 | ΔLag 5 μM (Table X, 5 μM test compound): 1.4

3,5-Dihydroxy-2-naphthoyl-d(LVFF)-nh2 [PPI-487]
ΔLag 5 μM [1]: 2.2

4-Hydroxybenzoyl-d(LFFFL)-nh2 [PPI-643]
ΔLag 5 μM (Table IX, 5 μM test compound): 2.2

Ac-d(LFFFL)-nh2 [PPI-644]
ΔLag 5 μM (Table IX, 5 μM test compound): 2.1
